Laboratory results as given in patent US20100209486A1, “Method of enhancing CoenzymeQ10 levels in mammals” (priority 2009, published 2010).

Key:
[1] = system: isolated guinea pig hearts; assay: Reperfusion-induced ventricular fibrillation in isolated ischemic/reperfused hearts from orally treated guinea pigs; type: in vivo; settings: 5 mg/kg/day oral for 4 weeks; 30 min global ischemia then reperfusion; drug-free control 92%
Experimental: FIG. 1. The incidence of reperfusion-induced ventricular fibrillation (VF). Guinea pigs were orally treated with a daily dose of 5 mg/kg of CoQ10 or CoQ9 or vehicle control for 4 weeks, and then hearts were excised, and isolated for perfusion via Langendorff mode and subjected to 30 min of global ischemia followed by 120 min of reperfusion. N=12 in each group, *p<0.05 compared to the drug-free control (C) group.
(§1) Experimental studies were designed to determine if CoQ9 could protect guinea pig hearts from ischemia reperfusion injury. Myocardial ischemia reperfusion injury model is the most widely accepted experimental method for assessment of parameters related to cardio-protection. […] Cardioprotection was assessed by evaluating left ventricular function, ventricular arrhythmias, myocardial infarct size and cardiomyocyte apoptosis.
Protective effect of CoQ9 and CoQ10 against from Ventricular Fibrillation (VF): Healthy Male Hartley guinea pigs of about 350-400 gm body weight were randomly divided into three groups, Control, CoQ9 and CoQ10. […] Epicardial ECG was recorded through out the experiment, by attaching two silver electrodes directly to the myocardium and data collected using a data acquisition system (ADInstruments, Powerlab, Castle Hill, Australia). ECGs were analyzed to determine ventricular fibrillation (VF) and ventricular tachycardia (VT). […]

[2] = system: isolated guinea pig hearts; assay: Cardiomyocyte apoptosis (TUNEL) in isolated ischemic/reperfused guinea pig hearts; type: in vivo; settings: 5 mg/kg/day oral for 4 weeks; end of reperfusion; percent of total myocyte population; control 21±2%
Experimental: FIG. 2/B. Effects of CoQ10 and CoQ9 on cardiomyocyte apoptosis in isolated guinea pig hearts subjected to 30 min of ischemia followed by 120 min of reperfusion. The bars represent mean±SD of cardiomyocyte apoptosis for control, CoQ10 and CoQ9 supplemented groups. *p<0.05 compared to the untreated age-matched ischemic/reperfused drug-free control (C) value.
as §1
CoQ9 and CoQ10 treatment reduces apoptosis of cardiomyocytes: Animal preparation, drug pretreatment and isolated working heart preparation were done as described in example 1. […] The fluorescence staining was viewed with a confocal laser microscope. The number of apoptotic cells was counted and expressed as a percent of total myocyte population. […] Apoptosis of cardiomyocytes determined by Tunel method in control group was about 21±2% at the end of reperfusion.

COC1=C(OC)C(=O)C(C/C=C(\C)CC/C=C(\C)CC/C=C(\C)CC/C=C(\C)CC/C=C(\C)CC/C=C(\C)CC/C=C(\C)CC/C=C(\C)CCC=C(C)C)=C(C)C1=O [CoQ9, Coenzyme Q9]
incidence of reperfusion-induced ventricular fibrillation (VF) [1]: 8% | apoptotic cardiomyocytes (Tunel method) [2]: 7±1.5%

COC1=C(OC)C(=O)C(C/C=C(\C)CC/C=C(\C)CC/C=C(\C)CC/C=C(\C)CC/C=C(\C)CC/C=C(\C)CC/C=C(\C)CC/C=C(\C)CC/C=C(\C)CCC=C(C)C)=C(C)C1=O [CoQ10, Coenzyme Q10, reference compound]
incidence of reperfusion-induced ventricular fibrillation (VF) [1]: 25% | apoptotic cardiomyocytes (Tunel method) [2]: 6±1%
